The values that follow come from patent US5264430A, “2-spirocyclopropyl cephalosporin sulfone derivatives” (SynPhar Laboratories, Inc., priority 1991, dated 1993).

One may read the IC50 as the point on the concentration scale where inhibition reaches its midpoint.

Experiment [1] deals with T1, human leukocyte elastase (HLE) (Homo sapiens, UniProt P08246).
T1 construct: Purified elastase from human white blood cells; from tissue; host or cells: human white blood cells
T1 sequence (P08246 30-247 limits assumed): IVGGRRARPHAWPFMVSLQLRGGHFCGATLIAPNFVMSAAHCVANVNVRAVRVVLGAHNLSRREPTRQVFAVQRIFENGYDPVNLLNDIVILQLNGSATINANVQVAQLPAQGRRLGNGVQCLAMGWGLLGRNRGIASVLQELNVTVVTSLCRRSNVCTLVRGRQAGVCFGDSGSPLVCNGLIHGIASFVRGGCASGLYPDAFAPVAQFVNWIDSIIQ
Nature of the experiment: Enzyme assay for inhibition of HLE (Table I, activity against ILE). The settings on record: HLE 10 nM, 10 minute preincubation, pH 7.6, 30° C. The class given is biochemical. Here is the method:
Enzyme Assay for Inhibition of HLE
Enzyme: Purified elastase from human white blood cells.
MeO-succinyl-L-alanyl-L-alanyl-L-propyl-L-valine-p-nitroanilide (NA)
10 mM phosphate buffer (pH 7.6)
10% dimethylsulfoxide (DMSO)
The enzyme activity was determined by monitoring the increase in absorbance at […] caused by the hydrolysis of chromogenic substrates. Inhibition of enzyme by the compounds described were determined after a 10 minute preincubation with the enzyme in reaction mixture minus substrate. Reaction was initiated by the addition of substrate. The concentration of human leukocyte elastase used for assay was at 10 nM.
HLE, CTG, PPE, and CTD were tested at 30° C. and the others were […]

For experiment [2], the target named is T2, cathepsin G (Homo sapiens, UniProt P08311).
T2 construct: Purified Cathepsin G from human white blood cells; from tissue; host or cells: human white blood cells
T2 sequence (P08311 21-244 limits assumed): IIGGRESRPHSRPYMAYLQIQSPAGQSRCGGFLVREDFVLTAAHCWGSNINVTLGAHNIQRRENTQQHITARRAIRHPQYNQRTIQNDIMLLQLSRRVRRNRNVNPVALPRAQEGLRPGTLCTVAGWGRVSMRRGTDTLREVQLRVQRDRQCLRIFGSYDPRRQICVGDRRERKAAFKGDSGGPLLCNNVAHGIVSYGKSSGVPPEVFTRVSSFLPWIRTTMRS
Nature of the experiment: Selectivity against various proteases: cathepsin G (CTG). The class given is biochemical. To be noted: cathepsin G 50 nM, human white blood cells, pH 7.5, 30° C., 10 minute preincubation. The procedure: Reaction mixture: […] 500 mM NaCl […] 2.0 mM Substrate Except for Cathepsin D, the enzyme activities were determined by monitoring the increase in absorbance at 410 nm caused by the hydrolysis of chromogenic substrates. The activity of Cathepsin D was determined by monitoring the absorbance of 5% trichloroacetic acid-soluble material at 280 nm. Inhibition of enzymes by the compounds described were determined after a 10 minute preincubation with enzymes in reaction mixtures minus substrate. Reactions were initiated by the addition of substrates. The concentration used for assays were porcine pancreatic elastase at 240 nM and human Cathepsin G at 50 nM. Cathepsin D was used at the concentration that produced approximately 0.15 O.D. increase per 20 min at 280 nm under the standard conditions. All other proteases were assayed at the concentrations that produced approximately 0.1 O.D. change per minute at 410 nm under the standard conditions.

For experiment [3], the target named is T3, trypsin (Bos taurus, UniProt P00760).
T3 construct: Purified trypsin from bovine pancreas; from tissue; host or cells: bovine pancreas
T3 sequence (P00760 24-246): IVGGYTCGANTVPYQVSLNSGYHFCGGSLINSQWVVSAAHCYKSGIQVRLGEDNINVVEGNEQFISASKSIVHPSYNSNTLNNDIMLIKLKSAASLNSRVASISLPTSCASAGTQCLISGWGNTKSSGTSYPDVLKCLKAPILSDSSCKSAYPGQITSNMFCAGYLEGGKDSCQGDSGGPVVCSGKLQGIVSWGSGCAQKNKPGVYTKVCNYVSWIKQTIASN
The experiment can be described thus: Selectivity against various proteases: trypsin (TRY). The class given is biochemical, bovine.
Method: Enzyme: Purified trypsin from bovine pancreas
Substrate: Bz-L-arginine-p-NA
50 mM Tricine[N-Tris(hydroxymethyl)methylglycine]-NaOH buffer (pH 8.8) 150 mM NaCl

The target of experiment [4] is T4, thrombin (Homo sapiens, UniProt P00734).
T4 construct: Purified thrombin from human plasma; from tissue; host or cells: human plasma
Nature of the experiment: Selectivity against various proteases: thrombin (THR). To be noted: human plasma, pH 8.6, 22° C., 10 minute preincubation. Type of experiment: biochemical. Here is the method:
TRY = trypsin, THR = thrombin, PLM = plasmin, CTC = cathepsin C, APM =
Enzyme: Purified thrombin from human plasma
Substrate: Tosyl-glycyl-L-prolyl-L-arginine-p-NA acetate
50 mM Tricine-NaOH buffer (PH 8.6)
(§1) Except for Cathepsin D, the enzyme activities were determined by monitoring the increase in absorbance at 410 nm caused by the hydrolysis of chromogenic substrates. The activity of Cathepsin D was determined by monitoring the absorbance of 5% trichloroacetic acid-soluble material at 280 nm.
Inhibition of enzymes by the compounds described were determined after a 10 minute preincubation with enzymes in reaction mixtures minus substrate. Reactions were initiated by the addition of substrates. The concentration used for assays were porcine pancreatic elastase at 240 nM and human Cathepsin G at 50 nM. Cathepsin D was used at the concentration that produced approximately 0.15 O.D. increase per 20 min at 280 nm under the standard conditions. All other proteases were assayed at the concentrations that produced approximately 0.1 O.D. change per minute at 410 nm under the standard conditions.

Experiment [5] deals with T5, cathepsin C (Bos taurus, UniProt Q3ZCJ8).
T5 construct: Purified cathepsin C from bovine spleen; from tissue; host or cells: bovine spleen
T5 sequence (Q3ZCJ8 231-394 limits assumed): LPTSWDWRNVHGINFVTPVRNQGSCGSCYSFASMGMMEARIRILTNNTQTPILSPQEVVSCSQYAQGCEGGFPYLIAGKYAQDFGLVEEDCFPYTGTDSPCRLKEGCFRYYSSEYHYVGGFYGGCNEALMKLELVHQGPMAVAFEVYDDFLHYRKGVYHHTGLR
T5 sequence (Q3ZCJ8 395-463 limits assumed): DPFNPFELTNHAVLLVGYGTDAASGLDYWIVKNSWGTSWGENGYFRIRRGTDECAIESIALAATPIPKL
T5 sequence (Q3ZCJ8 25-134 limits assumed): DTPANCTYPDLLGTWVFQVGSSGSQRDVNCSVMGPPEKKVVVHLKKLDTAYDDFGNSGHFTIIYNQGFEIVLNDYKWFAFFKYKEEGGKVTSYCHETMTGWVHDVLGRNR
Nature of the experiment: Selectivity against various proteases: cathepsin C (CTC). Type of experiment: biochemical, bovine. To be noted: cathepsin C, bovine spleen, pH 5.4, 22° C., 10 minute preincubation; read-out: CTC IC50 (converted).
Method: Enzyme: Purified cathepsin C from bovine spleen
Substrate: Glycyl-L-phenylalanine-pNA
50 mM Citrate buffer (pH 5.4)
Inhibition of enzymes by the compounds described were determined after a 10 minute preincubation with enzymes in reaction mixtures minus substrate. Reactions were initiated by the addition of substrates. […] All other proteases were assayed at the concentrations that produced approximately 0.1 O.D. change per minute at 410 nm under the standard conditions.

Experiment [6] has as its target T6, aminopeptidase M (Sus scrofa, UniProt P15145).
T6 construct: Purified aminopeptidase M from porcine kidney; from tissue; host or cells: porcine kidney
T6 sequence (P15145 1-963): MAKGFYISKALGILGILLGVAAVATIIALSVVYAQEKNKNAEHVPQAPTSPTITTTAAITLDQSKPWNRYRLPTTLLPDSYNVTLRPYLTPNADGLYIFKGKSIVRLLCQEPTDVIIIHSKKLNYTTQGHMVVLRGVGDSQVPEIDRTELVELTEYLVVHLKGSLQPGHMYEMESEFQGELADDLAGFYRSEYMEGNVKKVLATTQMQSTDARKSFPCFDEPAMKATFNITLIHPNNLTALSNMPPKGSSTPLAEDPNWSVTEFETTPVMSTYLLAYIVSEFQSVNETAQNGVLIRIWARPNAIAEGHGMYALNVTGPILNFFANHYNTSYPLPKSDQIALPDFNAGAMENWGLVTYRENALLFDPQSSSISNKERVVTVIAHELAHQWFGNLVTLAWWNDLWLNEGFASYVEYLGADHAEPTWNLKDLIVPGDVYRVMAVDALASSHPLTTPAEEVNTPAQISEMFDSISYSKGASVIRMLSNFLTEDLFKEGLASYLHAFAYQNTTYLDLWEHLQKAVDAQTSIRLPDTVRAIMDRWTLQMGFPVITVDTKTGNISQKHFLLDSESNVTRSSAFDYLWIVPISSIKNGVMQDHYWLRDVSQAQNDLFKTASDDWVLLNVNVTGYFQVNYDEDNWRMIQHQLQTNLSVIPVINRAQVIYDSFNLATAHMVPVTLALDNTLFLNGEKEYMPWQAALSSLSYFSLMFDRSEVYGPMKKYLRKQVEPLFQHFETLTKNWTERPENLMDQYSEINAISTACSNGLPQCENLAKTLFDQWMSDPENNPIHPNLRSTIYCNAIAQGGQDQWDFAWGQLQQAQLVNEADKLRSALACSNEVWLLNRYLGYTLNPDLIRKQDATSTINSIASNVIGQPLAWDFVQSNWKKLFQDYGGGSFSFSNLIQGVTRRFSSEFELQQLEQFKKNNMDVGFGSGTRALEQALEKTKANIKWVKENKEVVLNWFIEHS
The experiment can be described thus: Selectivity against various proteases: aminopeptidase M (APM). The class given is biochemical, porcine.
Method: Enzyme: Purified aminopeptidase M from porcine kidney
50 mM Tricine buffer (pH 7.5)

For experiment [7], the target named is T7, cathepsin D (Bos taurus, UniProt P80209).
T7 construct: Purified cathepsin D from bovine spleen; from tissue; host or cells: bovine spleen
T7 sequence (P80209 45-390): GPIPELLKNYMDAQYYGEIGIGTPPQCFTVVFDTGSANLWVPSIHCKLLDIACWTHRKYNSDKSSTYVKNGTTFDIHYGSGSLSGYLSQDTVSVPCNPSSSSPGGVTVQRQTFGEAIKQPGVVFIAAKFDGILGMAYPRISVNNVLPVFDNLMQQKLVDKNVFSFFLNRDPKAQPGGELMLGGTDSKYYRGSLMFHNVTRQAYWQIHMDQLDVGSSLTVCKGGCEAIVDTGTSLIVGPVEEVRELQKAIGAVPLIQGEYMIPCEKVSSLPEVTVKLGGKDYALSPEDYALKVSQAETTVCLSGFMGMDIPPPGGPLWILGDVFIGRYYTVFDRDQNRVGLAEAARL
Nature of the experiment: Selectivity against various proteases: cathepsin D (CTD). Type of experiment: biochemical, bovine. The settings on record: cathepsin D, bovine spleen, pH 3.2, 30° C., 10 minute preincubation; read-out: CTD IC50 (converted).
Method: Enzyme: Purified cathepsin D from bovine spleen
Substrate: Hemoglobin (bovine)
250 mM Glycine buffer (pH 3.2)

The target in experiment [8] is T8, porcine pancreatic elastase (Sus scrofa, UniProt P00772).
T8 construct: Purified elastase from porcine pancreas; from tissue; host or cells: porcine pancreas
T8 sequence (P00772 27-266): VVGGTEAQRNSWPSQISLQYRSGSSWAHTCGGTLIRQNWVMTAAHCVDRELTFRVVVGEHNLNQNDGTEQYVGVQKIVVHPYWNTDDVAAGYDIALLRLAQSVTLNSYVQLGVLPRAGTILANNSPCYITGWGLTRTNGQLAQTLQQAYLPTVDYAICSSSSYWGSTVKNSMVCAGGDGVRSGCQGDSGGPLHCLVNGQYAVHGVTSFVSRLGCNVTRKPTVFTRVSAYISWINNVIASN
Nature of the experiment: Selectivity against various proteases: porcine pancreatic elastase (PPE). Type of experiment: biochemical. The settings on record: porcine pancreatic elastase 240 nM, pH 8.9, 30° C., 10 minute preincubation; read-out: PPE IC50 (converted). The procedure: Porcine Pancreatic Elastase (PPE)
Enzyme: Purified elastase from porcine pancreas
Substrate: MeO-succinyl-L-alanyl-L-alanyl-L-prolyl-L-valine-pNA
50 mM Tris[Tris(hydroxymethyl) aminomethane]. HCl buffer (pH 8.9)
as §1
Inhibition of enzymes by the compounds described were determined after a 10 minute preincubation with enzymes in reaction mixtures minus substrate. Reactions were initiated by the addition of substrates. […] Cathepsin D was used at the concentration that produced approximately 0.15 O.D. increase per 20 min at 280 nm under the standard conditions. All other proteases were assayed at the concentrations that produced approximately 0.1 O.D. change per minute at 410 nm under the standard conditions.

With `CC1=C(C(=O)OC(c2ccccc2)c2ccccc2)N2C(=O)[C@H](Br)[C@H]2S(=O)(=O)C12CC2(c1ccccc1)c1ccccc1` (single isomer, unassigned) [Example 2, benzhydryl 7α-bromo-2-spiro(2', 2'-diphenyl) cyclopropyl-3-methyl-3-cephem-4-carboxylate-1,1-dioxide], the IC50 is 0.00336 µM in experiment [1] and 16.2 µM in experiment [2].
`CO[C@H]1C(=O)N2C(C(=O)N3CCCC3)=C(C)C3(CC3(c3ccccc3)c3ccccc3)S(=O)(=O)[C@H]12` (stereo partly drawn) [Example 10, 7-α-Methoxy-2-spiro (2',2'-diphenyl)cyclopropyl-3-methyl-3-cephem-4-pyrrolidine carboxamide-1,1-dioxide]: the IC50 was 40 µM in experiment [3]; 40 µM in experiment [4]; 9.99 µM in experiment [5]; 40 µM in experiment [6]; 30.9 µM in experiment [2]; 9.99 µM in experiment [7]. Besides, the IC50 in experiment [8] is 0.0954 µM.
